Experimental data from patent US20150101077A1, “INDUCIBLE PROMOTER SEQUENCES FOR REGULATED EXPRESSION AND METHODS OF USE” (PIONEER HI-BRED INTERNATIONAL INC, priority 2012, published 2015).

Key:
ZmCAS1 transcript = test: Northern blot of maize RNA with ZmCAS1 probe after CBSU treatment; assay type: in vivo; details: for ZmCAS1 hybridization signal in anther mRNA: FIG. 2
Method: Wild type maize plants were grown to the meiosis stage of microspore development. Plants were watered with 30 mg 2-CBSU and allowed to develop to the quartet and early vacuolate stage of microspore development. PolyA+ anther RNA was isolated from wild type control and CBSU treated plants and stored. A cDNA library was constructed from mRNAs isolated from CBSU-treated plants, arrayed onto nylon filters and stored. A cDNA subtraction library was generated using the Clontech PCR-Select cDNA Subtraction Kit (#K1804-1) following the manufacturer's instructions to enrich for CBSU-specific transcripts. Using this approach anther PolyA+mRNA from wild-type plants was used to enrich for transcripts found in the anther PolyA+mRNA from CBSU treated plants. This cDNA subtraction library was subcloned into pSPORT (BRL) vector, colonies plated, picked and sequenced. Among the vector inserts sequenced, two DNA sequences were present at a high proportion, at more than 10% of the inserts sequenced, and referred to as ZmCAS1c-1 (477 bp; SEQ ID NO: 1) and ZmCAS1c-2 (438 bp; SEQ ID NO: 2) (QBSU-Anther-Subtract 1). Both ZmCAS1c-1 and ZmCAS1c-2 had sequence identity to mannitol dehydrogenases from plants. ZmCASlc-1 and ZmCAS1c-2 DNA fragments were used as hybridization probes to screen the filter arrayed cDNA CBSU-anther library described above to isolate full-length cDNA containing hybridizing clones. Both ZmCAS1c-1 and ZmCAS1c-2 identified identical cDNA clones. […]
(§1) To determine whether the ZmCAS1 cDNA was 1) induced in maize anthers by CBSU-treatment and 2) reduced or absent in tapetum and microspore-ablated maize anthers from CBSU-treated 5126:DAM plants, a 477 bp ZmCAS1c-1 DNA fragment (SEQ ID NO:1), as well as DNA fragments from ZmMS45, Zm5126, ZmActin, and ZmUbiquitin (Cigan et al. 2001. […] MS45 and 5126 transcripts were easily detected in anther RNAs from male-fertile plants but absent in anther RNAs from male-sterile plants (FIG. 2) further supporting the observation that these RNAs are localized to the maize tapetum (Cigan et al. 2001. Sex. Plant Reprod. 14, 135-142).

1.7 kb ZmCAS1 promoter [1] = test: GUS expression in leaf punches of maize plants transformed with PHP16975; assay type: in vivo; details: 2 days after watering with 30 mg of 2-CBSU, 3 PHP16975 plants, FIG. 5
Method: Plants were also regenerated from callus events containing PHP16975 and grown in the greenhouse to approximately the 5 leaf stage. At this stage of development, leaf punches from plants regenerated from the 3 bialophos-resistant events shown in FIG. 5 were collected pre- (C) and post-watering (S) with 30 mg of 2-CBSU to examine GUS expression in leaf in response to application of the safener.

1.0 kb ZmCAS1 promoter [2] = test: X-Gluc GUS staining of rice callus transformed with PHP16974; assay type: cell-based, Oryza sativa cv.Kitaake; details: PHP16974 callus events, 100 mg/liter CBSU, 24 hours, FIG. 9
Description: To determine whether the ZmCAS1 promoter could conditionally regulate expression in response to safener treatment or heat treatment in plant species other than maize, Agrobacterium-mediated transformation was used to generate integrated copies of PHP16974 (ZmCAS1HindIII Pro:GUS) comprising the truncated 1.0 kb ZmCAS1 promoter for studies in rice. Scutellum from 10-14 day old germinating seeds (Oryza sativa cv.Kitaake) was used for rice transformation experiment (Toki. 1997, PI Mol. Biol Reporter 15:16-21). Bialophos-resistant callus events containing PHP16974 were selected and screened for their ability to respond to safener application. Four independent bialophos-resistant events were grown on maintenance media or maintenance media containing 100 mg/liter CBSU for 24 hours, removed and stained with X-Gluc. […] PHP16974 bialophos-resistant events were regenerated into plants. Leaf tissue was collected from these plants and used for DNA hybridization analyses to identify single-copy PHP16974 insertions. These plants were allowed to set selfed seed and were used for subsequent studies to monitor GUS expression under the transcriptional control of the ZmCAS1 promoter. Sixteen seed were selected from 2 single-copy PHP16974 events were sterilized, grown on hormone-free media at 28° C. or 37° C. for 48 hours and allowed to germinate. […]

1.7 kb ZmCAS1 promoter [3] = test: Western analysis of MS45 protein in ms45/ms45 maize plants transformed with PHP16973; assay type: in vivo; details: PHP16973 plants watered with 30 mg of CBSU, collected 2 days later
1.7 kb ZmCAS1 promoter [4] = test: X-Gluc GUS staining of maize callus transformed with PHP16975; assay type: cell-based; details: room temperature, 18 hours, FIG. 4A
Description: Agrobacterium-mediated transformation of immature embryos was used to generate integrated copies of PHP16974 (SEQ ID NO:11; ZmCAS1HindIII Pro:GUS/35SPAT) comprising the 1.0 kb ZmCAS1 promoter (SEQ ID NO:9), PHP16975 (SEQ ID NO:12, ZmCAS1BamPro:GUS/35SPAT) comprising the 1.7 kb ZmCAS1 promoter (SEQ ID NO:10) and PHP16972 (SEQ ID NO:13, ZmCAS1 HindIII Pro:MS45/35SPAT) comprising the 1.0 kb ZmCAS1 promoter or PHP16973 (SEQ ID NO:14, ZmCASIBamPro:MS45/35SPAT:) comprising the 1.7 kb ZmCAS1 promoter.
To determine whether the 1.7 kb or the 1.0 kb ZmCAS1 promoter from maize could direct induced expression of the GUS reporter, three bialophos-resistant callus events were placed onto maintenance media and maintenance media containing increasing amounts of the safener CBSU-2 for at room temperature for 18 hours, removed and stained with X-Gluc to detect GUS activity.

1.0 kb ZmCAS1 promoter [5] = test: Northern analysis of MS45 mRNA in ms45/ms45 maize callus transformed with PHP16972; assay type: cell-based; details: 100 mg/liter CBSU, room temperature, 18 hours, FIG. 6
Description: T-DNA vectors PHP16972 (SEQ ID NO:13, ZmCAS1HindIII Pro: MS45/35S:PAT) and PHP16973 (SEQ ID NO: 14, ZmCAS1 BamPro:MS45/35S:PAT) were used to transform maize callus which was generated to contain a segregating population of MS45/ms45 heterozygous and ms45/ms45 homozygous mutant plants. In order to detect MS45 RNA or protein expression under the control of the 1.0 or 1.7 kb ZmCAS promoter in maize anthers, plants containing a naturally occurring mutation in the maize MS45 gene which results in loss of MS45 RNA and protein were used for these studies. Pollen from MS45/ms45 plants were used to fertilize male-sterile ms45/ms45 plants for the purpose of generating embryos which would be ms45/ms45 as described in Cigan et al 2001. […] Five random bialophos-resistant callus events containing integrated copies of PHP16972 were placed onto maintenance media (FIG. 5, (−)) and maintenance media containing 100 mg/liter safener CBSU-2 (FIG. 5 (+)) at room temperature for 18 hours, removed and PolyA+RNA prepared and used for RNA analysis as described (Cigan et al. 2001. Sex. Plant Reprod. 14, 135-142) using the ZmMS45 and ZmActin probes for hybridization analysis. […] A very low signal was observed when callus was grown in the absence of CBSU. Actin was used as a control probe to show nearly equivalent RNA levels were present in all samples. […]

IN2-2 transcript = test: Northern blot of maize anther RNA with IN2-2 probe after CBSU treatment; assay type: in vivo; details: CBSU-treated male-fertile and male-sterile plants, FIG. 2
Method: Wild type maize plants were grown to the meiosis stage of microspore development. Plants were watered with 30 mg 2-CBSU and allowed to develop to the quartet and early vacuolate stage of microspore development. PolyA+ anther RNA was isolated from wild type control and CBSU treated plants and stored. A cDNA library was constructed from mRNAs isolated from CBSU-treated plants, arrayed onto nylon filters and stored. A cDNA subtraction library was generated using the Clontech PCR-Select cDNA Subtraction Kit (#K1804-1) following the manufacturer's instructions to enrich for CBSU-specific transcripts. Using this approach anther PolyA+mRNA from wild-type plants was used to enrich for transcripts found in the anther PolyA+mRNA from CBSU treated plants. […]
as §1

1.0 kb ZmCAS1 promoter [6] = test: X-Gluc GUS staining of maize callus transformed with PHP16974; assay type: cell-based; details: seven PHP16974 callus events, 100 mg/liter CBSU, room temperature, FIG. 4B

Q: Which results are given for NC(=O)NS(=O)(=O)c1ccccc1Cl [CBSU, N-(aminocarbonyl)-2-chlorobenzenesulfonamide]?
A: ZmCAS1 hybridization in mRNAs from callus, leaf and anther (ZmCAS1 transcript; maize callus or leaf treated with CBSU, FIG. 3): strong hybridization; ZmCAS1 hybridization signal in anther mRNA (ZmCAS1 transcript; male-fertile CBSU-treated plants (+, F)): strong hybridization signals; ZmCAS1 hybridization signal in anther mRNA (ZmCAS1 transcript; male-sterile 5126:DAM CBSU-treated plants (+, S)): reduced ZmCAS1 signal; GUS expression in leaf punches (1.7 kb ZmCAS1 promoter [1]): strong GUS expression; GUS expression in rice callus (1.0 kb ZmCAS1 promoter [2]): strong GUS expression; MS45 protein in leaf extracts (1.7 kb ZmCAS1 promoter [3]; FIG. 7): increased steady-state levels of the MS45 protein; MS45 protein in anther extracts (1.7 kb ZmCAS1 promoter [3]; FIG. 8): Increased MS45 protein; GUS expression in callus (1.7 kb ZmCAS1 promoter [4]; 10 mg/l CBSU): low levels of GUS expression; GUS expression in callus (1.7 kb ZmCAS1 promoter [4]; 100 mg/l CBSU): strong GUS expression; MS45 mRNA hybridization signal in callus (1.0 kb ZmCAS1 promoter [5]): strong induction of a hybridization signal; IN2-2 hybridization signal in anther mRNA (IN2-2 transcript): strong hybridization signals; GUS expression in callus (1.0 kb ZmCAS1 promoter [6]): inducible GUS expression
